This is an account of results in a melting point compilation (Tetko et al.; mined from patent text by program, amines drawn as free bases though some values may be those of a salt).

The term melting point denotes the temperature of the solid-liquid transition. `c1ccc(C(c2ccccc2)N2CC(n3ccnn3)C2)cc1` had a melting point of 167 to 168 °C.

In the case of `CCCn1nc2c(N)nc3ccccc3c2c1NC`, the melting point lay within 200 to 201 °C. The result for `CCOC(=O)Nc1cc(O)c(Cl)cc1F` reads 152 to 154 °C; that for `CN(C)C=NS(=O)(=O)c1cc2ccncc2s1`, 169 to 171 °C; that for `CCOC(=O)C1=C(N2CCCC2)N=C(C)C(C(=O)OCC)C1c1ccccc1C#N` (configuration not stated), 115 °C. As for `O=C(COc1ccc(O)cc1)N1CCN(CC(O)Cn2c3ccccc3c3ccccc32)CC1` (configuration not stated), the melting point was found to be 155 °C. The value for `Cc1cccc(C(F)(F)C(F)(F)c2ccccc2)c1C` was 110 to 112 °C; that for `COc1ccc(CN2C(=O)[C@@H](NC(=O)Cc3ccccc3)[C@H]2CN=[N+]=[N-])c(OC)c1` (relative stereo) was 110 to 111 °C. The result for `CC(C)(C)C1CCN(CCCC(=O)c2ccc3c(c2)-c2ccc(C(=O)CCCN4CCC(C(C)(C)C)CC4)c4cccc-3c24)CC1` reads 150 to 152 °C; that for `COc1cc(-n2nc(C)n(C(F)F)c2=O)c(F)cc1Cl`, 86 to 88 °C. `Cc1ccc(S(=O)(=O)NC(=O)OCCc2ccc(-n3c(CCC(=O)c4cccnc4)nc4cc(C(F)(F)F)c(Cl)cc43)cc2)cc1` had a melting point of 89 to 95 °C.

`CSc1cnn(-c2c(Cl)cc(C(F)(F)F)cc2Cl)c1N` yielded a melting point of 106 to 108 °C. The compound `CC(C)NC(=O)c1c(I)cccc1C(=O)Nc1ccc(OCC(F)(F)F)nc1` yielded a melting point of 220 to 225 °C. The value for `O=C(O)Cc1c(C(=O)c2ccc(Cl)cc2)[nH]c2cc(Cl)c(F)cc12` was 215 to 220 °C; that for `CN(C(=O)C(F)(F)F)c1cnn(-c2cccc(C(F)(F)F)c2)c(=O)c1-c1cccc(C(F)(F)F)c1` was 122 °C; that for `Cc1nc(-c2cccnc2)sc1-c1ccnc(Nc2cc(Cl)c(N3CCOCC3)c(Cl)c2)n1` was 276 to 278 °C. The result for `COC(=O)COc1ccc(CC(C)NCC(O)c2cccc(C(F)(F)F)c2)cc1C` (configuration not stated) reads 75 to 79 °C; that for `O=C(O)c1cccc(-c2ccc3occ(-c4ccc(Cl)cc4Cl)c3c2)c1`, 271 to 272 °C. `C[Si](C)(C)c1ccc2c(c1)cc(C(=O)Nc1ccc(N3CC(O)C3)nc1)n2Cc1cccc(F)c1` gave a melting point of 207 to 208 °C.

Turning to `O=C(Nc1ccc(Br)cc1)C(=O)N1CCC(Cc2ccc(F)cc2)CC1`, the melting point was in the range of 156 to 158 °C. The value for `COc1ccc(CC(=O)c2ccc(OC)nc2)cc1` was 101 to 102 °C. The value for `CN(CCNc1ccc2ncc(Br)n2n1)C(=O)OC(C)(C)C` was 128 to 129 °C; that for `NS(=O)(=O)c1ccccc1Cc1nnc(S)s1` was 173 to 197 °C; that for `CCOC(=O)c1ccc(I)nc1` was 48 to 49 °C. For `Cn1c(=O)c2c(ncn2CCN2CCC(c3c[nH]c4ccc(O)cc34)CC2)n(C)c1=O`, the melting point is 232 °C. The result for `CC(=O)Nc1ccc(O[C@H]2CCN(C)C[C@H]2c2ccccc2)cc1` (relative stereo) reads 174 to 176 °C; that for `C=C1C(=C)C2OC1C1=C2CC2C(O)C=CC(=O)C2C1` (configuration not stated), 110 °C; that for `CS(=O)(=O)c1cc(C(=O)O)c(Cl)cc1Oc1ccccc1`, 200 °C.

Regarding `Fc1cc(F)c(F)c(-c2c(Cl)nc3ncnn3c2Cl)c1`, the melting point came to 191 °C. The result for `CC(=NC(=Nc1ccccc1)N1CCOCC1)NCCO` reads 132 to 134 °C. The result for `Fc1cccc(Cl)c1-c1nnc2ccc(C(F)(F)F)cn12` reads 170 to 171 °C; that for `CC(C)(C)OC(=O)c1ccc2cncn2c1`, 77 °C. The result for `c1nnc2cc3c(cc2c1NCC1CCCO1)OCO3` (configuration not stated) reads 196 to 198 °C; that for `O=C(Nc1ccc(S(=O)(=O)N2CCOCC2)cc1)c1cc(Cl)ccc1[N+](=O)[O-]`, 243 to 245 °C. On to `COc1cc2c(c([N+](=O)[O-])c1)NCCC2=O`, for which the melting point fell in the range of 161 to 162 °C. The value for `COc1ccc(C(=O)N[C@H](Cc2ccc(C(F)(F)F)cc2)[C@@H](O)c2ccc(F)cc2)cc1` (racemic) was 192 to 193 °C; that for `CC(=O)N[C@@H](CSC(C)=O)C(=O)NCCSC(=O)C(C)C` was 115 to 117 °C; that for `CCc1nnc2c(Cl)nc3cc(F)ccc3n12` was 203 to 205 °C. The value for `CC(C)[C@@H]1CC[C@@H](C)C[C@H]1O[C@@H]1OC(=O)[C@@H]2[C@H]1C2(C)C` was 82 °C. Take `Cc1csc(-c2cc3cccc(NS(=O)(=O)c4cccs4)c3[nH]2)n1`: the melting point lay in the range of 181 to 183 °C.

The compound `NC(=O)c1ccc([N+](=O)[O-])c(C(N)=O)c1` returned a melting point of 287 to 289 °C. The result for `Cc1oc(-c2cccs2)nc1CCOc1ccc([N+](=O)[O-])cn1` reads 126 °C; that for `CCCN(c1cccc(-c2ccnc3c([N+](=O)[O-])cnn23)c1)S(=O)(=O)c1ccccc1`, 154 to 156 °C. Consider `C[C@@H](NC(=O)c1c[nH]c2ncc(-c3nn(CCCO)c4cc(Cl)ccc34)nc12)C(=O)N1CC(C#N)C1`, for which the melting point was in the range of 240 to 250 °C. The value for `CCOC(=O)c1ncn2c1C(C)N=C(c1ccccc1)c1cc(Br)ccc1-2` (configuration not stated) was 164 to 165 °C; that for `C[Si](C)(C)c1cc(Cl)sc1C(=O)NCCOS(C)(=O)=O` was 82 to 86 °C; that for `CCCc1c(OCCCOc2ccc3c(=O)cc(C(=O)O)oc3c2CCC)ccc(C(C)=O)c1O` was 173 to 174 °C. Compound `CC1(C)OC(c2ccc(S(C)(=O)=O)cc2)=C(c2ccc(OC(F)(F)F)cc2)C1=O` gave a melting point of 118 to 120 °C. The compound `CS(=O)(=O)c1ccc(C(CC2CCCC2)C(=O)Nc2cnccn2)cc1[N+](=O)[O-]` (configuration not stated) came in with a melting point of 104 to 108 °C. The result for `CCS(=O)(=O)C(F)(F)C(Cn1cncn1)(OP(=O)(O)O)c1ccc(F)cc1F` (single isomer, unassigned; (+)) reads 212 to 214 °C; that for `C[C@@H]1[C@H](O)[C@@H](C)C=C(S(=O)(=O)c2ccccc2)[C@@H]2O[C@H]12`, 118 to 120 °C. Compound `CCOC(=O)c1cn2c3c(cccc3c1=O)CC2(C)C` displayed a melting point of 117 to 119 °C. The value for `N#Cc1cc(-c2ccc(Cl)c(Cl)c2)[nH]c1Cl` was more than 200 °C; that for `Clc1cc(Cl)n2c(-c3cccs3)ncc2n1` was 152 to 153 °C.

As for `COc1cccc2c(=O)c(CO)cn(C)c12`, the melting point is 162 to 167 °C. Take `CCCCCCCCCCC(C(=O)CCCCO)P(=O)(c1ccccc1)c1ccccc1` (configuration not stated): the melting point is 70 °C. The value for `CN(C)/C=C/C(=O)c1ccc2n1Cc1ccccc1N(C(=O)c1ccc(C3CCCCC3)cc1)C2` was 237 to 240 °C; that for `COCc1c(S(C)(=O)=O)ccc(C(=O)O)c1C` was 129 to 131 °C; that for `COc1ccc2c(c1)c(CC(=O)O)c(C)n2CC1CCCCC1` was 173 to 175 °C. The value for `COc1ccc(C2(C=O)CCC(=O)CC2)cc1OC1CCCC1` was 55 to 57 °C; that for `CC1(C)Cc2cccc(OC(=O)Cl)c2O1` was 85 to 87.5 °C.

In turn, `Clc1ccc(-c2cccc3[nH]c4c(c23)CCN(Cc2ccccc2)CC4)c(Cl)c1` displayed a melting point of 194 to 196 °C. The compound `Nc1nc(Cl)cc(NCC2CC2(Cl)Cl)n1` (configuration not stated) had a melting point of 78 to 79 °C.

In turn, `COc1ccc(-c2nnc3c4ccccc4c(Nc4ccc(NC(=O)c5ccc(N6CCOCC6)cc5)cc4)nn23)cc1` returned a melting point of 313 °C.

`COc1ccc(C(=O)Nc2c(Cl)cncc2Cl)c2c1OCC2CC(=O)Nc1c(Cl)cncc1Cl` (configuration not stated) displayed a melting point of more than 300 °C. The value for `CC1=C(c2ccncc2)SC(c2ccc(O)cc2)C(=O)N1` (configuration not stated) was 198 to 200 °C; that for `Nc1cccc(N2C(=O)CCCC2c2ccc(Cl)c(Cl)c2)c1` (configuration not stated) was 202 to 203 °C; that for `c1ccc2c(c1)NCCCO2` was 50 to 51 °C.

As for `CCn1c(=O)ccc2cnc(Nc3cccc(F)c3)nc21`, the melting point was 210 to 212 °C. The value for `Clc1cc(Cl)c(C(Cl)Cl)nc1Cl` was 61 to 62 °C; that for `CCOC(=O)c1ccc(Sc2cc3c(cc2C)C(C)(C)CCC3(C)C)cc1` was 109 to 110 °C; that for `CCN(CCN(C)C)c1ccc(-c2ccnc(Nc3cc(OC)c(OC)c(OC)c3)n2)cn1` was 90 °C. The result for `C=CCCO[C@@H](Cc1ccc(OCCc2nc(C(C)(C)C)oc2C)c2ccsc12)C(=O)O` reads 70 to 71 °C; that for `CC(C)NC(=O)c1c(NC(=O)c2cc(C(F)(F)F)nn2-c2ncccc2Cl)c(Cl)cc2cn[nH]c12`, 245 to 247 °C; that for `CC(C)N1C(=O)c2cccc3c(S(C)(=O)=O)ccc1c23`, 164 to 165 °C. Take `COc1ccccc1NC(=S)c1ccc(C)cc1`: the melting point is 91 to 93 °C. The value for `CS(=O)(=O)c1cc(C(=O)O)ccc1Oc1ccc(C(=S)Cc2ccc3ccccc3n2)cc1` was 210 to 214 °C; that for `O=C(N[C@H](Cc1ccccc1)[C@H](O)C(=O)O)OCc1ccccc1` was 154 to 155 °C. The value for `CCCN1CCC(Cc2ccc3c(c2)c(Cc2ccc(C(=O)NS(=O)(=O)c4ccccc4C)cc2OC)cn3CCC)C1=O` (configuration not stated) was 98 to 115 °C; that for `COc1ccc(Cl)cc1C(=O)Nc1ccc(CCC(=O)O)cc1` was 188 to 190 °C; that for `C=CCc1c(O)ccc2c(C)c(CC(=O)OC)c(=O)oc12` was 160 to 162 °C. The value for `C=CCOc1ccc(Nc2nccc(-c3cccnc3)n2)cc1` was 105 to 108 °C; that for `O=C(c1ccc[nH]1)C1CCCCC1` was 83 to 84 °C. In turn, `c1ccc(SC2CCN(C(c3ccccc3)c3ccccc3)CC2)cc1` yielded a melting point of 118 to 119 °C. The result for `O=C(c1ccc(Br)s1)c1c(F)c(F)cc(F)c1F` reads 51 to 54 °C. The result for `C=CCNC1=NS(=O)(=O)c2cnccc2N1` reads 206 to 208 °C. The value for `CCCCCCCCC(=O)Nc1cc([N+](=O)[O-])cc([N+](=O)[O-])c1` was 72.5 to 73 °C.
